Tests used:
Assay in all cases: relative viability (nuclei count vs DMSO), 5 days (fraction); higher = more cells survive
[1] = compound: COC1=CC=C(C=C1)CN2C=CC3=C2C=C(C=C3)C(=O)NO + COc1cc2c(Oc3ccc(NC(=O)C4(C(=O)Nc5ccc(F)cc5)CC4)cc3F)ccnc2cc1OCCCN1CCOCC1 [Foretinib] (partner 0.25 µM)
Method in brief: (§1)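 Relative viability equals treated-well nuclei counts divided by vehicle-well nuclei counts. Counts came from 4× images of lung cancer cell lines grown in 1536-well plates for 5 days after pin-tool dosing on the day after seeding. Dosing used one drug alone or a fixed anchor-drug dose plus five library-drug doses (not always all listed) in √10 steps, and values are medians of duplicate plates.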

[2] = compound: COC1=CC=C(C=C1)CN2C=CC3=C2C=C(C=C3)C(=O)NO + CS(=O)(=O)CCNCc1ccc(-c2ccc3ncnc(Nc4ccc(OCc5cccc(F)c5)c(Cl)c4)c3c2)o1 [Lapatinib] (partner 2 µM)
Method in brief: as §1

Veliparib + OSI-027 = compound: C[C@]1(c2nc3c(C(N)=O)cccc3[nH]2)CCCN1 [Veliparib] + COc1cccc2cc(-c3nc([C@H]4CC[C@H](C(=O)O)CC4)n4ncnc(N)c34)[nH]c12 [OSI-027] (partner 0.5 µM)
Method in brief: as §1

Veliparib + AZD7762 = compound: C[C@]1(c2nc3c(C(N)=O)cccc3[nH]2)CCCN1 [Veliparib] + NC(=O)Nc1cc(-c2cccc(F)c2)sc1C(=O)N[C@H]1CCCNC1 [AZD7762] (partner 0.2 µM)
Method in brief: as §1

Row | Cell Line | relative viability ([1]; first compound 0.08 µM) | relative viability ([1]; first compound 0.253 µM) | relative viability ([1]; first compound 0.8 µM) | relative viability ([1]; first compound 2.53 µM) | relative viability ([1]; first compound 8 µM) | relative viability ([2]; first compound 0.253 µM) | relative viability ([2]; first compound 0.8 µM) | relative viability ([2]; first compound 2.53 µM) | relative viability ([2]; first compound 8 µM) | relative viability (Veliparib + OSI-027; first compound 0.02 µM) | relative viability (Veliparib + OSI-027; first compound 0.06325 µM) | relative viability (Veliparib + OSI-027; first compound 0.2 µM) | relative viability (Veliparib + OSI-027; first compound 0.6325 µM) | relative viability (Veliparib + OSI-027; first compound 2 µM) | relative viability (Veliparib + AZD7762; first compound 0.02 µM) | relative viability (Veliparib + AZD7762; first compound 0.06325 µM) | relative viability (Veliparib + AZD7762; first compound 0.2 µM) | relative viability (Veliparib + AZD7762; first compound 0.6325 µM) | relative viability (Veliparib + AZD7762; first compound 2 µM) | relative viability ([2]; first compound 0.08 µM)
1 | HCC-366 | 0.433 | 0.994 | 0.89 | 0.992 | 0.923 | 0.992 | 1.06 | 1.04 | 1.07 | 0.961 | 0.752 | 0.89 | 0.838 | 0.915 | 0.233 | 0.253 | 0.174 | 0.164 | 0.231 | –
2 | HCC-827 | 0.834 | 1.13 | 1.09 | 1.05 | 0.996 | 0.212 | 0.168 | 0.181 | 0.178 | 0.763 | 0.843 | 0.722 | 0.552 | 0.786 | 0.26 | 0.335 | 0.2 | 0.236 | 0.222 | 0.189
3 | IA-LM | 0.997 | 1.33 | 1.08 | 1.2 | 1.06 | 0.662 | 0.952 | 0.966 | 0.541 | – | – | – | – | – | – | – | – | – | – | 0.551
4 | LCLC-103H | 0.68 | 0.846 | 0.832 | 0.789 | 0.761 | – | – | – | – | 0.464 | 0.434 | 0.462 | 0.466 | 0.5 | 0.794 | 0.73 | 0.702 | 0.75 | 0.687 | –
5 | NCI-H441 | 0.933 | 1.26 | 0.943 | 1.03 | 0.844 | – | – | – | – | 0.622 | 0.539 | 0.553 | 0.585 | 0.617 | 1.12 | 1.09 | 1.14 | 1.01 | 1.04 | –
6 | NCI-H520 | 0.326 | 0.841 | 0.895 | 0.814 | 0.907 | 0.891 | 0.943 | 0.886 | 0.803 | 0.224 | 0.309 | 0.276 | 0.231 | 0.234 | – | – | – | – | – | 0.425
7 | NCI-H522 | – | – | – | – | – | – | – | – | – | 0.679 | 0.731 | 0.888 | 0.689 | 0.732 | 0.805 | 0.896 | 0.846 | 0.87 | 0.873 | –
8 | NCI-H661 | – | 1.02 | 1.03 | 0.999 | 0.927 | 0.471 | 0.471 | 0.443 | 0.402 | 0.751 | 0.704 | 0.743 | 0.669 | 0.657 | – | – | – | – | – | –
9 | NCI-H1299 | 1.09 | 1.1 | 1.15 | 1.09 | 1.05 | 0.979 | 0.969 | 0.934 | 0.923 | – | – | – | – | – | – | – | – | – | – | 0.959
10 | NCI-H1563 | 0.762 | 0.897 | 0.888 | 0.928 | 0.892 | 0.939 | 0.953 | 0.862 | 0.748 | 0.672 | 0.741 | 0.799 | 0.751 | 0.77 | – | – | – | – | – | 0.769
11 | NCI-H1623 | 0.649 | 0.82 | 0.866 | 0.859 | 0.766 | – | – | – | – | 0.384 | 0.362 | 0.425 | 0.42 | 0.431 | – | – | – | – | – | –
12 | NCI-H1648 | – | – | – | – | – | – | – | – | – | 0.255 | 0.262 | 0.249 | 0.278 | 0.251 | 0.762 | – | – | 0.711 | 0.685 | –
13 | NCI-H1650 | 0.764 | 1.14 | 1.29 | 1.27 | 0.766 | 0.76 | 0.847 | 0.86 | 0.451 | – | 0.501 | 0.691 | 0.502 | 0.561 | – | – | – | – | – | 0.254
14 | NCI-H1703 | – | 0.374 | 0.385 | 0.368 | 0.307 | 1.16 | 1.1 | 1.07 | 0.873 | – | – | – | – | – | 0.0963 | 0.11 | 0.112 | 0.138 | 0.13 | 0.691
15 | NCI-H1792 | – | – | – | – | – | 0.906 | 0.824 | 0.915 | 0.836 | 0.738 | 0.708 | 0.73 | 0.707 | 0.664 | 0.479 | 0.485 | 0.548 | 0.569 | 0.533 | 0.867
16 | NCI-H2009 | 0.931 | 1.3 | 1.17 | 1.27 | 1.24 | 0.886 | 1.25 | 0.954 | 0.767 | 0.63 | 0.645 | 0.672 | 0.586 | 0.672 | – | – | – | – | – | 0.432
17 | NCI-H2023 | 0.489 | 0.899 | 0.778 | 0.697 | 0.722 | 0.792 | 0.784 | 0.864 | 0.601 | 0.339 | 0.398 | 0.442 | 0.347 | 0.432 | – | – | – | – | – | 0.155
18 | NCI-H2228 | – | 1 | 0.933 | 0.857 | 0.609 | 0.853 | 1.11 | 0.916 | 0.789 | 0.529 | 0.569 | 0.56 | 0.486 | 0.551 | – | – | – | – | – | 0.864
19 | NCI-H2342 | 0.997 | 0.986 | 0.978 | 0.956 | 1.02 | – | – | – | – | 0.586 | 0.558 | 0.649 | 0.687 | 0.572 | 0.392 | 0.543 | 0.417 | 0.471 | 0.405 | –
20 | SK-LU-1 | 0.756 | 0.766 | 0.799 | 0.86 | 0.74 | 0.781 | 1.04 | 0.905 | 0.81 | 0.388 | 0.316 | 0.381 | 0.307 | 0.343 | – | – | – | – | – | 0.711
21 | SK-MES-1 | 1.17 | 0.929 | 0.927 | 0.98 | 0.927 | 0.519 | 0.534 | 0.497 | 0.446 | 0.618 | 0.527 | 0.686 | 0.588 | 0.638 | – | – | – | – | – | 0.473
22 | SW 900 | 0.746 | 0.822 | 0.908 | 0.828 | 0.719 | – | – | – | – | – | – | 0.675 | 0.582 | 0.413 | – | 0.575 | 0.526 | 0.59 | 0.591 | –
23 | UMC-11 | – | 1.21 | 1.02 | 1.05 | 1 | 1.14 | 1.05 | 1.02 | 0.916 | 0.508 | 0.471 | 0.472 | 0.469 | 0.415 | – | – | – | – | – | 0.374

Reference: the supplement of paper PMC10307832
